Results taken from US20110190162A1, “METHOD OF NUCLEIC ACID DELIVERY INTO THREE-DIMENSIONAL CELL CULTURE ARRAYS” (priority 2009, published 2011).

Columns and labels:
[1] = system: parent HepG2 cells (control); test: Acetaminophen toxicity, cell viability; type: cell-based; details: Homo sapiens, 24 h exposure, read-out: calculated IC50 (cell viability)
[2] = Metabolism-induced toxicity assay, cell viability; type: cell-based; details: human, HepG2 cells infected with Ad-3A4 (expressing CYP3A4); HepG2 transfected with Ad-3A4 at 40 MOI, 24 h exposure; read-out: calculated IC50 (cell viability)
Procedure: Metabolism-induced toxicity assay was performed with acetaminophen on HepG2 cells expressing CYP3A4. After transfecting HepG2 cells with Ad-3A4 at 40 MOI, HepG2 cells were exposed to acetaminophen at varying concentrations for 24 h. HepG2 cell viability decreased as acetaminophen concentration increased.

`CC(=O)Nc1ccc(O)cc1` [acetaminophen] showed an IC50 [1] of 17.5 mM and an IC50 at 24 h [2] of 7.3 mM.
